Test results from US3931244A, “Thioureas” (John Wyeth & Brother Limited, priority 1973, dated 1976).

The compounds below were run on appetite (assay: Anorectic test: length of spaghetti eaten by starved mice during a two hour test period). Conditions: 100 mg/kg per os, dosed one hour before test, overnight-starved male mice, (mean length eaten by control - test)/control × 100.
Assay type: in vivo
Protocol: The compounds of the invention may be tested for anorectic properties by the following procedure:
Groups of 8 or 10 male mice weighing 22-24 grams are starved overnight, although access to water is not restricted. The animals are dosed with the test drug or vehicle alone (control) one hour before they are placed individually into glass jars. The jars (100 mm diameter × 80 mm high) have lids fitted with a glass tube to accommodate a stick of spaghetti of approximate length of 450 mm. The glass tube is arranged such that only 5 mm of spaghetti is exposed for eating by the mouse. The length of spaghetti eaten during a two hour test period is indicative of the appetite of the animal.
When tested by this procedure at a dose of 100 mg/kg per os the following results were obtained: […]

Point of comparison: `C[C@@H](Cc1ccccc1)NC(=S)NC(=O)c1ccco1` [Example 6], “% Inhibition of appetite” value 40%. Against it:
- COc1ccc(C(=O)NC(=S)N[C@@H](C)Cc2ccccc2)cc1 [Example 3, N-(4-Methoxybenzoyl)-N'-(1-methyl-2-phenyl)ethylthiourea] — higher, 52%
- C[C@@H](Cc1ccccc1)NC(=S)NC(=O)c1ccccc1 [Example 1, N-Benzoyl-N'-(1-methyl-2-phenyl)ethylthiourea] — higher, 90%
- O=C(NC(=S)NCCc1ccccc1)c1ccccc1 [Example 2, N-Benzoyl-N'-phenthylthiourea] — higher, 49%
- C[C@@H](Cc1ccccc1)NC(=S)NC(=O)c1cccc(C(F)(F)F)c1 [Example 4, N-(3-Trifluoromethylbenzoyl)-N'-(1-methyl-2-phenyl)-ethylthiourea] — higher, 49%
- Cc1cccc(C(=O)NC(=S)N[C@@H](C)Cc2ccccc2)c1 [Example 7, N-(3-Toluoyl)-N'-(1-methyl-2-phenyl)ethylthiourea] — higher, 53%
- C[C@@H](Cc1ccccc1)NC(=S)NC(=O)c1ccc(Cl)cc1 [Example 5, N-(4-Chlorobenzoyl)-N'-(1-methyl-2-phenyl)ethylthiourea] — higher, 41%
